# Reference: patent US20100316529A1, “Anti-Microbial Systems and Methods” (priority 2001, published 2010)
# Experiments:
# Assay in all cases: EDTA salt dilution test, MIC/MBC
# Assay type in all cases: cell-based
# Kleb. oxytoca = tested on: Kleb. oxytoca
# Kleb. ornitholytica = tested on: Kleb. ornitholytica
# Proteus vulgaris = tested on: Proteus vulgaris
# Coryneform strait/amy = tested on: Coryneform strait/amy
# Kleb. pnemoniae = settings: two entries
# Description: (§1) Protocol one: Broth dilutions:
# (§2) Inoculate a 25 ml nutrient broth (Oxoid No2) in a sterile universal container with one of the following organisms; Pseudomonas aeruginosa, Proteus Mirabilis, E. coli, Klebsiella pneumoniae, Staph aureus, Coagulase negative staphylococci, Enterococcus faecalis or MRSA.
# (§3) Incubate the broth at 37° C. overnight.
# (§4) To make these concentrations put the EDTA needed for 10 mLs in only 9 mLs of broth in sterile universal containers, as this will be diluted further when the organisms are added.
# (§5) Dilute the overnight broth cultures to 10^7 organisms/mL using more sterile nutrient broth.
# (§6) Add 1 mL of this diluent to each of the EDTA series broths. This gives a final concentration of 10^6 organism/mL in the EDTA broths.
# (§7) Incubate for 18 hours at 37° C.
# (§8) Next day visually read the MIC's by observing the turbidity of the broths.
# (§9) Plate out 1 uL of each dilution onto fresh blood agar plate and spread using a sterile plastic spreader.
# (§10) Incubate overnight at 37° C.
# (§11) Next day read the MBC's by performing colony counts.
# Ent. faecalis = tested on: Ent. faecalis
# Description: as §1, §2, §3, §4, §5, §6, §7, §8, §9, §10, §11
# S. epidermidis = settings: two entries
# Description: as §1, §2, §3, §4, §5, §6, §7, §8, §9, §10, §11
# Pseudomonas sp. = tested on: Pseudomonas sp.
# Description: as §1, §2, §3, §4, §5, §6, §7, §8, §9, §10, §11
# S. xylosus = tested on: S. xylosus
# Description: as §1, §2, §3, §4, §5, §6, §7, §8, §9, §10, §11
# Proteus mirabilis = settings: two entries
# Description: as §1, §2, §3, §4, §5, §6, §7, §8, §9, §10, §11
# S. simulans = tested on: S. simulans
# Description: as §1, §2, §3, §4, §5, §6, §7, §8, §9, §10, §11
# S. aureus = settings: five entries
# Description: as §1, §2, §3, §4, §5, §6, §7, §8, §9, §10, §11
# S. capitis = settings: two entries
# Description: as §1, §2, §3, §4, §5, §6, §7, §8, §9, §10, §11
# E. coli = settings: three entries, Exhibit A1
# Description: as §1, §2, §3, §4, §5, §6, §7, §8, §9, §10, §11
# MRSA = settings: five entries
# Description: as §1, §2, §3, §4, §5, §6, §7, §8, §9, §10, §11
# S. lentus = tested on: S. lentus
# Description: as §1, §2, §3, §4, §5, §6, §7, §8, §9, §10, §11
# Pseudomonas aeruginosa = settings: two entries
# Description: as §1, §2, §3, §4, §5, §6, §7, §8, §9, §10, §11
# Ent. faeculm = tested on: Ent. faeculm
# Cornyeform amycolatum = settings: Exhibit A1
# Steno. maltophilia = tested on: Steno. maltophilia
compound,measurement,setting,value
O=C([O-])CN(CCN(CC(=O)[O-])CC(=O)[O-])CC(=O)[O-].[Cu+2].[Na+].[Na+] [Cupric disodium EDTA],"MBC, minimum concentration required to kill an entire population",Kleb. oxytoca; Exhibit A1,>30000 µg/mL
same,"MIC, minimum concentration required to inhibit growth",Kleb. oxytoca; Exhibit A2,>30000 µg/mL
same,"MBC, minimum concentration required to kill an entire population",Kleb. ornitholytica; Exhibit A1,>30000 µg/mL
same,"MIC, minimum concentration required to inhibit growth",Kleb. ornitholytica; Exhibit A2,>30000 µg/mL
same,"MBC, minimum concentration required to kill an entire population",Proteus vulgaris; Exhibit A1,>30000 µg/mL
same,"MIC, minimum concentration required to inhibit growth",Proteus vulgaris; Exhibit A2,>30000 µg/mL
same,"MBC, minimum concentration required to kill an entire population",Coryneform strait/amy; Exhibit A1,<500 µg/mL
same,"MIC, minimum concentration required to inhibit growth",Coryneform strait/amy; Exhibit A2,<500 µg/mL
same,"MBC, minimum concentration required to kill an entire population",Kleb. pnemoniae; Exhibit A1,>30000 µg/mL
same,"MIC, minimum concentration required to inhibit growth",Kleb. pnemoniae; Exhibit A2,>30000 µg/mL
same,"MBC, minimum concentration required to kill an entire population",Ent. faecalis; Exhibit A1,<500 µg/mL
same,"MIC, minimum concentration required to inhibit growth",Ent. faecalis; Exhibit A2,<500 µg/mL
same,"MBC, minimum concentration required to kill an entire population",S. epidermidis; Exhibit A1,<500 µg/mL
same,"MIC, minimum concentration required to inhibit growth",S. epidermidis; Exhibit A2,<500 µg/mL
same,"MBC, minimum concentration required to kill an entire population",Pseudomonas sp.; Exhibit A1,>30000 µg/mL
same,"MIC, minimum concentration required to inhibit growth",Pseudomonas sp.; Exhibit A2,>30000 µg/mL
same,"MBC, minimum concentration required to kill an entire population",S. xylosus; Exhibit A1,<500 µg/mL
same,"MIC, minimum concentration required to inhibit growth",S. xylosus; Exhibit A2,<500 µg/mL
same,"MBC, minimum concentration required to kill an entire population",Proteus mirabilis; Exhibit A1,>30000 µg/mL
same,"MIC, minimum concentration required to inhibit growth",Proteus mirabilis; Exhibit A2,6000 µg/mL
same,"MBC, minimum concentration required to kill an entire population",S. simulans; Exhibit A1,<500 µg/mL
same,"MIC, minimum concentration required to inhibit growth",S. simulans; Exhibit A2,<500 µg/mL
same,"MBC, minimum concentration required to kill an entire population",S. aureus; Exhibit A1,<500 µg/mL
same,"MIC, minimum concentration required to inhibit growth",S. aureus; Exhibit A2,<500 µg/mL
same,"MBC, minimum concentration required to kill an entire population",S. capitis; Exhibit A1,<500 µg/mL
same,"MIC, minimum concentration required to inhibit growth",S. capitis; Exhibit A2,<500 µg/mL
same,"MBC, minimum concentration required to kill an entire population",E. coli,>30000 µg/mL
same,"MBC, minimum concentration required to kill an entire population",MRSA; Exhibit A1,<500 µg/mL
same,"MIC, minimum concentration required to inhibit growth",MRSA; Exhibit A2,<500 µg/mL
same,"MBC, minimum concentration required to kill an entire population",S. lentus; Exhibit A1,<500 µg/mL
same,"MIC, minimum concentration required to inhibit growth",S. lentus; Exhibit A2,<500 µg/mL
same,"MBC, minimum concentration required to kill an entire population",Pseudomonas aeruginosa; Exhibit A1,>30000 µg/mL
same,"MIC, minimum concentration required to inhibit growth",Pseudomonas aeruginosa; Exhibit A2,>30000 µg/mL
same,"MIC, minimum concentration required to inhibit growth","Ent. faeculm; Ent. faecuim, Exhibit A2",<500 µg/mL
same,"MBC, minimum concentration required to kill an entire population","Ent. faeculm; Ent. faeculm, Exhibit A1",<500 µg/mL
same,"MBC, minimum concentration required to kill an entire population",Cornyeform amycolatum,<500 µg/mL
same,"MBC, minimum concentration required to kill an entire population",Steno. maltophilia; Exhibit A1,>30000 µg/mL
same,"MIC, minimum concentration required to inhibit growth",Steno. maltophilia; Exhibit A2,6000 µg/mL
